{"source": "patent US6894050B2", "about": "“5-HT receptor ligands and uses thereof” (Pfizer Inc., priority 2001, dated 2005)", "key": {"[1]": {"tested_on": "anaesthetised rabbit model of sexual arousal", "assay": "Pelvic nerve-stimulated genital blood flow in the anaesthetised rabbit model of sexual arousal", "format": "in vivo", "details": "5 mg/kg s.c.; for Compound-induced potentiation of stimulated vaginal blood flow: %", "protocol": "Female New Zealand rabbits (˜2.5 kg) were pre-medicated with a combination of Medetomidine (Domitor®) 0.5 ml/kg intramuscularly (i.m.), and Ketamine (Vetalar®) 0.25 ml/kg i.m. whilst maintaining oxygen intake via a face mask. The rabbits were tracheotomised using a Portex™ uncuffed endotracheal tube 3 ID (internal diameter), connected to ventilator and maintained at a ventilation rate of 30-40 breaths per minute, with an approximate tidal volume of 18-20 ml, and a maximum airway pressure of 10 cm H2O. Anaesthesia was then switched to Isoflurane® and ventilation continued with O2 at 2 l/min. The right marginal ear vein was cannulated using a 23G or 24G catheter, and Lactated Ringer solution perfused at 0.5 ml/min. The rabbit was maintained at 3% Isoflurane® during invasive surgery, dropping to 2% for maintenance anaesthesia.\nThe left groin area of the rabbit was shaved and a vertical incision was made approximately 5 cm in length along the thigh. The femoral vein and artery were exposed, isolated and then cannulated with a PVC catheter (17G) for the infusion of drugs and compounds. Cannulation was repeated for the femoral artery, inserting the catheter to a depth of 10 cm to ensure that the catheter reached the abdominal aorta. This arterial catheter was linked to a Gould system to record blood pressure. Samples for blood gas analysis were also taken via the arterial catheter. Systolic and diastolic pressures were measured, and the mean arterial pressure calculated using the formula (diastolic×2+systolic)÷3. Heart rate was measured via the pulse oxymeter and Po-ne-mah data acquisition software system (Ponemah Physiology Platform, Gould Instrument Systems Inc).\nA ventral midline incision was made into the abdominal cavity. The incision was about 5 cm in length just above the pubis. The fat and muscle was bluntly dissected away to reveal the hypogastric nerve which runs down the body cavity. It was essential to keep close to the side curve of the pubis wall in order to avoid damaging the femoral vein and artery, which lie above the pubis. The sciatic and pelvic nerves lie deeper and were located after further dissection on the dorsal side of the rabbit. Once the sciatic nerve is identified, the pelvic nerve was easily located. The term pelvic nerve is loosely applied; anatomy books on the subject fail to identify the nerves in sufficient detail. However, stimulation of the nerve causes an increase in vaginal and clitoral blood flow, and innervation of the pelvic region. The pelvic nerve was freed away from surrounding tissue and a Harvard bipolar stimulating electrode was placed around the nerve. The nerve was slightly lifted to give some tension, then the electrode was secured in position. Approximately 1 ml of light paraffin oil was placed around the nerve and electrode. This acts as a protective lubricant to the nerve and prevents blood contamination of the electrode. The electrode was connected to a Grass S88 Stimulator. The pelvic nerve was stimulated using the following parameters:—5V, pulse width 0.5 ms, duration of stimulus 10 seconds and a frequency range of 2 to 16 Hz. Reproducible responses were obtained when the nerve was stimulated every 15-20 minutes. A frequency response curve was determined at the start of each experiment in order to determine the optimum frequency to use as a sub-maximal response, normally 4 Hz. A ventral midline incision was made, at the caudal end of the pubis, to expose the pubic area. Connective tissue was removed to expose the tunica of the clitoris, ensuring that the wall was free from small blood vessels. The external vaginal wall was also exposed by removing any connective tissue. One laser Doppler flow probe was inserted 3 cm into the vagina, so that half the probe shaft was still visible. A second probe was positioned so that it lay just above the external clitoral wall. The position of these probes was then adjusted until a signal was obtained. […]"}, "[2]": {"molecular_target": "T1, 5-HT2c receptor (5-HT2c expressed NIH 3T3 cells) (UniProt P28335)", "T1 sequence (P28335 1-458)": "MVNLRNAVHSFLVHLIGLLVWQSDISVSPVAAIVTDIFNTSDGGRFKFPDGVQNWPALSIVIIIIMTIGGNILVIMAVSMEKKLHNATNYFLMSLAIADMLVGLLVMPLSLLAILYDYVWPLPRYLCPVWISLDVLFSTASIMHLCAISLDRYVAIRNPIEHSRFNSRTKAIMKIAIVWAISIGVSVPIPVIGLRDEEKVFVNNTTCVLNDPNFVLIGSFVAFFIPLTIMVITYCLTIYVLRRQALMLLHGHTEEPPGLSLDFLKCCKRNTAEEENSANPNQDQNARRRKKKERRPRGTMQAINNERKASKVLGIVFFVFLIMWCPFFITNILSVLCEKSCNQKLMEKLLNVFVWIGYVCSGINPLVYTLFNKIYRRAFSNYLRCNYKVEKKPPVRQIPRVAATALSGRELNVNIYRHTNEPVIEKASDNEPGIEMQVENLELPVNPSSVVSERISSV", "assay": "Functional Assay (FLIPR calcium fluorescence, Fluo 4-AM)", "format": "cell-based", "protocol": "[…] Forty eight (48) hrs later the cells were loaded with the calcium sensitive dye, Fluo 4-AM (4 μM dissolved in DMSO containing pluronic acid) in serum free DMEM in the presence of probenicid (2.5 mM) for 75 minutes at 37° C. in a CO2 incubator. Unincorporated dye was removed by washing 3 times with a HEPES-buffered saline containing probenicid (2.5 mM) using a Skatron™ cell washer (final volume 30 μL).\nTest compound additions were made simultaneously to all 384 wells after 20 seconds of baseline recording. Concentration-response curves were generated using Graphpad Prism™ (available from GraphPad Software, Inc., San Diego, Calif.) and agonist efficacies were generated as % of the response to 10 μM 5-HT (considered as 100%)."}}, "note": "Structures can show the parent of a compound that is named as a salt.", "data": [{"smiles": "COCC[C@H](CC1(C(=O)NCCCc2ccc(Cl)cc2)CCCC1)C(=O)O", "note": "(as salt: sodium)", "values": [{"measurement": "melting point", "result": "214 to 216", "unit": "°C"}]}, {"smiles": "O=C1Nc2cc(Cl)c(Cl)cc2N2CCNCC12", "note": "(stereo not shown) [8,9-dichloro-2,3,4,4a-tetrahydro-1H-pyrazino[1,2-a]quinoxalin-5(6H)-one]", "values": [{"measurement": "time after s.c. dosing at which potentiation was significant", "setting": "[1]", "result": 30, "unit": "min"}, {"measurement": "time potentiation remained elevated", "setting": "[1]", "result": "circa 1 hr"}, {"measurement": "effect on pelvic-nerve stimulated (PNS) increases in vaginal and clitoral blood flow", "setting": "[1]; anaesthetised rabbit", "result": "potent enhancer"}, {"measurement": "potentiation of pelvic nerve stimulated increases in genital blood flow", "setting": "[1]; anaesthetised rabbit", "result": "circa 35%"}, {"measurement": "effect on basal genital blood flow in the absence of PNS", "setting": "[1]; no pelvic nerve stimulation", "result": "no effect"}, {"measurement": "Pelvic nerve stimulated increases in vaginal blood flow", "setting": "[1]; 15 min after injection", "result": 292, "unit": "Laser Doppler units"}, {"measurement": "Unstimulated vaginal blood flow", "setting": "[1]; 15 min after injection", "result": 185, "unit": "Laser Doppler units"}, {"measurement": "Compound-induced potentiation of stimulated vaginal blood flow", "setting": "[1]; 15 min after injection", "result": 21, "unit": "%"}, {"measurement": "Pelvic nerve stimulated increases in vaginal blood flow", "setting": "[1]; 30 min after injection", "result": 325, "unit": "Laser Doppler units"}, {"measurement": "Unstimulated vaginal blood flow", "setting": "[1]; 30 min after injection", "result": 162, "unit": "Laser Doppler units"}, {"measurement": "Compound-induced potentiation of stimulated vaginal blood flow", "setting": "[1]; 30 min after injection", "result": 34, "unit": "%"}, {"measurement": "Pelvic nerve stimulated increases in vaginal blood flow", "setting": "[1]; 45 min after injection", "result": 295, "unit": "Laser Doppler units"}, {"measurement": "Unstimulated vaginal blood flow", "setting": "[1]; 45 min after injection", "result": 150, "unit": "Laser Doppler units"}, {"measurement": "Compound-induced potentiation of stimulated vaginal blood flow", "setting": "[1]; 45 min after injection", "result": 22, "unit": "%"}, {"measurement": "Pelvic nerve stimulated increases in vaginal blood flow", "setting": "[1]; 60 min after injection", "result": 325, "unit": "Laser Doppler units"}, {"measurement": "Unstimulated vaginal blood flow", "setting": "[1]; 60 min after injection", "result": 127, "unit": "Laser Doppler units"}, {"measurement": "Compound-induced potentiation of stimulated vaginal blood flow", "setting": "[1]; 60 min after injection", "result": 34, "unit": "%"}, {"measurement": "Pelvic nerve stimulated increases in vaginal blood flow", "setting": "[1]; 75 min after injection", "result": 252, "unit": "Laser Doppler units"}, {"measurement": "Unstimulated vaginal blood flow", "setting": "[1]; 75 min after injection", "result": 137, "unit": "Laser Doppler units"}, {"measurement": "Compound-induced potentiation of stimulated vaginal blood flow", "setting": "[1]; 75 min after injection", "result": 4, "unit": "%"}, {"measurement": "Pelvic nerve stimulated increases in vaginal blood flow", "setting": "[1]; 90 min after injection", "result": 247, "unit": "Laser Doppler units"}, {"measurement": "Unstimulated vaginal blood flow", "setting": "[1]; 90 min after injection", "result": 132, "unit": "Laser Doppler units"}, {"measurement": "Compound-induced potentiation of stimulated vaginal blood flow", "setting": "[1]; 90 min after injection", "result": 2, "unit": "%"}]}, {"smiles": "Cc1cc(C)cc(COc2cncc(N3CCNCC3)n2)c1", "note": "[Example 1-AA, 6′-(3,5-Dimethyl-benzyloxy)-3,4,5,6-tetrahydro-2H-[1,2′]bipyrazinyl]", "values": [{"measurement": "functional behaviour at 5-HT2c", "setting": "[2]", "result": "acted as an antagonist"}]}, {"smiles": "C[C@@H](Oc1cncc(N2CCNCC2)n1)c1ccccc1", "note": "[Example 1-AE, 6′-[(1R)-Phenyl-ethoxy]-3,4,5,6-tetrahydro-2H-[1,2′]bipyrazinyl]", "values": [{"measurement": "functional behaviour at 5-HT2c", "setting": "[2]", "result": "acted as an antagonist"}]}, {"smiles": "C[C@H](Oc1cncc(N2CCNCC2)n1)c1ccccc1", "note": "[Example 1-AF, 6′-[(1S)-Phenyl-ethoxy]-3,4,5,6-tetrahydro-2H-[1,2′]bipyrazinyl]", "values": [{"measurement": "functional behaviour at 5-HT2c", "setting": "[2]", "result": "acted as an antagonist"}]}, {"smiles": "C[C@@H]1CNCCN1c1cncc(OCc2ccccc2F)n1", "note": "[Example 1-AH, 6′-(2-Fluoro-benzyloxy)-(2R)-methyl-3,4,5,6-tetrahydro-2H-[1,2′]bipyrazinyl]", "values": [{"measurement": "functional behaviour at 5-HT2c", "setting": "[2]", "result": "acted as an antagonist"}]}, {"smiles": "C[C@H]1CN(c2cncc(OCc3cccc(F)c3)n2)CCN1", "note": "[Example 1-AL, 6′-(3-Fluoro-benzyloxy)-(3S)-methyl-3,4,5,6-tetrahydro-2H-[1,2′]bipyrazinyl]", "values": [{"measurement": "functional behaviour at 5-HT2c", "setting": "[2]", "result": "acted as an antagonist"}]}, {"smiles": "Clc1cccc(COc2cncc(N3CCNCC3)n2)c1Cl", "note": "[Example 1-AO, 6′-(2,3-Dichloro-benzyloxy)-3,4,5,6-tetrahydro-2H-[1,2′]bipyrazinyl]", "values": [{"measurement": "functional behaviour at 5-HT2c", "setting": "[2]", "result": "acted as an antagonist"}]}, {"smiles": "CN1CCN(c2cncc(OCc3cccc(Cl)c3)n2)CC1", "note": "[Example 1-AS, 6′-(3-Chloro-benzyloxy)-4-methyl-3,4,5,6-tetrahydro-2H-[1,2′]bipyrazinyl]", "values": [{"measurement": "functional behaviour at 5-HT2c", "setting": "[2]", "result": "acted as an antagonist"}]}, {"smiles": "CN1CCN(c2cncc(OCc3cccc(F)c3)n2)CC1", "note": "[Example 1-AT, 6′-(3-Fluoro-benzyloxy)-4-methyl-3,4,5,6-tetrahydro-2H-[1,2′]bipyrazinyl]", "values": [{"measurement": "functional behaviour at 5-HT2c", "setting": "[2]", "result": "acted as an antagonist"}]}, {"smiles": "Clc1cc(Cl)cc(COc2cncc(N3CCNCC3)n2)c1", "note": "[Example 1-N, 6′-(3,5-Dichloro-benzyloxy)-3,4,5,6-tetrahydro-2H-[1,2′]bipyrazinyl]", "values": [{"measurement": "functional behaviour at 5-HT2c", "setting": "[2]", "result": "acted as an antagonist"}]}, {"smiles": "Clc1ccc(COc2cncc(N3CCNCC3)n2)cc1", "note": "[Example 1-R, 6′-(4-Chloro-benzyloxy)-3,4,5,6-tetrahydro-2H-[1,2′]bipyrazinyl]", "values": [{"measurement": "functional behaviour at 5-HT2c", "setting": "[2]", "result": "acted as an antagonist"}]}, {"smiles": "C[C@@H]1CN(c2cncc(OCc3cccc(Cl)c3)n2)CCN1", "note": "[Example 1-U, 6′-(3-Chloro-benzyloxy)-(3R)-methyl-3,4,5,6-tetrahydro-2H-[1,2′]bipyrazinyl]", "values": [{"measurement": "functional behaviour at 5-HT2c", "setting": "[2]", "result": "acted as an antagonist"}]}, {"smiles": "C[C@@H]1CN(c2cncc(OCc3cccc(Cl)c3)n2)C[C@H](C)N1", "note": "[Example 1-V, 6′-(3-Chloro-benzyloxy)-(3R,5S)-dimethyl-3,4,5,6-tetrahydro-2H-[1,2′]bipyrazinyl]", "values": [{"measurement": "activity at 10 μM", "setting": "[2]; 10 μM", "result": "no activity"}]}, {"smiles": "FC(F)(F)c1cc(COc2cncc(N3CCNCC3)n2)cc(C(F)(F)F)c1", "note": "[Example 1-W, 6′-(3,5-Bis-trifluoromethyl-benzyloxy)-3,4,5,6-tetrahydro-2H-[1,2′]bipyrazinyl]", "values": [{"measurement": "functional behaviour at 5-HT2c", "setting": "[2]", "result": "acted as an antagonist"}]}, {"smiles": "CC(Oc1cncc(N2CCNCC2)n1)c1cc(F)cc(F)c1", "note": "(stereo not shown) [Example 1-Z, 6′-[1-(3,5-Difluoro-phenyl)-ethoxy]-3,4,5,6-tetrahydro-2H-[1,2′]bipyrazinyl]", "values": [{"measurement": "functional behaviour at 5-HT2c", "setting": "[2]", "result": "acted as an antagonist"}]}, {"smiles": "Cl.Clc1ccc(CNc2cncc(N3CCNCC3)n2)cc1", "note": "[Example 4-C, (4-Chloro-benzyl)-(3,4,5,6-tetrahydro-2H-[1,2′]bipyrazinyl-6′-yl)-amine hydrochloride salt]", "values": [{"measurement": "functional behaviour at 5-HT2c", "setting": "[2]", "result": "acted as an antagonist"}]}, {"smiles": "Cl.Fc1ccc(CNc2cncc(N3CCNCC3)n2)cc1", "note": "[Example 4-D, (4-Fluoro-benzyl)-(3,4,5,6-tetrahydro-2H-[1,2′]bipyrazinyl-6′-yl)-amine hydrochloride salt]", "values": [{"measurement": "functional behaviour at 5-HT2c", "setting": "[2]", "result": "acted as an antagonist"}]}]}
